Measurements published in US20230384333A1 (priority 2020, published 2023).
Where “and” joins values, the source holds several entries; their conditions need not be identical. Equal entries are not always repeated. Entries after “also recorded” stand apart in the source; their conditions may differ. Structures can show the parent of a compound that is named as a salt.

Experiments:
psychLight2 [1] = assay: PSYLI2 high-content imaging, agonist mode; type: cell-based, human; parameters: dose or concentration left out as unconfirmed
psychLight = assay: Schild regression analysis in PSYLI2 cells; type: cell-based, human
Procedure: During imaging, […] of imaging media were added to each well of the assay plate. Wells were then imaged on a Lecia DMi8 using Leica Application Suite X (V3.6.0.20104) at 40×(N.A.=0.6) with 5 regions of interest (ROI) taken per well using the default 5 ROI pattern for each well with no bias to location and no overlap of the ROIs (exposure=350 ms, LED power=80%). Next, […] from the treatment plate was transferred to the assay plate for a final 1:1000 dilution of drug. All final drug treatments contained 0.1% DMSO. After 5 min of incubation, the same sites were re-imaged using the same settings. The data analysis method was the same as in agonist and antagonist mode.

psychLight1 [2] = target: T1, psychLight1 (Homo sapiens, UniProt P28223, E264Q/I181A); type: cell-based
T1 sequence (P28223 whole entry I181A/E264Q, looked up): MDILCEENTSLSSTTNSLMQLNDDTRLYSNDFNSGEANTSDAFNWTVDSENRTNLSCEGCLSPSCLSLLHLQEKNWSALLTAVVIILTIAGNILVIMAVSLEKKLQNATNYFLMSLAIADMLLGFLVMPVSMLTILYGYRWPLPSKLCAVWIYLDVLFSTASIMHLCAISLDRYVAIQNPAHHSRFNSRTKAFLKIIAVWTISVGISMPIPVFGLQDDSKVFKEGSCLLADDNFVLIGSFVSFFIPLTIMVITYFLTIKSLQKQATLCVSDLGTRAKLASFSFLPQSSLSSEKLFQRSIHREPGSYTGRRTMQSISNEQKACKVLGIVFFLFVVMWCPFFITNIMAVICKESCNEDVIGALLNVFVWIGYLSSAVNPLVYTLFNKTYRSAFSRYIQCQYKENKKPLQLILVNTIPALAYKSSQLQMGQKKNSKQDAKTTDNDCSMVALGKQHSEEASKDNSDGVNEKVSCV

psychLight1 [3] = target: T1, psychLight1; assay: cell-based; type: cell-based; parameters: fluorescence intensity change, confocal with psychLight1: dose or concentration left out as unconfirmed; settings: n=3
Procedure: HEK293T cells were grown in DMEM, supplemented with fetal bovine serum (FBS) and penicillin-streptomycin. Cells were trans-fected with Effectene according to the manufacturer's instructions. Prior to imaging, cells were washed with Hank's Balanced Salt Solution (HBSS) supplemented with 2 mM MgCl2 and 2 mM CaCl2). All images were collected in HBSS containing Mg^2+ and Ca^2+.
HEK293T cells were plated and transfected concurrently 24 h prior to each experiment using the QIAGEN Effectene Transfection
Dose-response experiments were performed using an Automate Perfusion System. Cells (HEK293T) were grown on 12 mm cover-slips and transfected with psychLight1. The coverslips were then placed into a coverslip holder and washed with 5 mL of HBSS containing 2 mM MgCl2 and 2 mM CaCl2). Cells were perfused first with 5 mL of 0.1% DMSO, then drugs in ascending concentrations from 1 pM to […] were added, with the concentration of DMSO being held constant at 0.10%. […] For the competition studies described in FIG. 19, HEK293T cells were prepared as described above; however, the cells were first exposed to 5 mL of 0.2% DMSO. […] Analysis was performed by taking 3 ROIs on the cell membrane using ImageJ and calculating the mean intensity for each ROI across the time-points. Finally, the DF/F was calculated using the average of the baseline (0.1 or 0.2% DMSO) and the average intensity between each dosage over the average of the baseline.

C57BL/6J mice [4] = assay: Locomotion assay; type: in vivo, mouse; settings: i.p., multiple doses
Procedure: (§1) The HTR assay was performed as described previously using both male and female C57BL/6J mice (2 male and 2 female=4 total per treatment). The mice were obtained from The Jackson Laboratory (Sacramento, C.A.) and were approximately 8-weeks old at the time of the experiments. Compounds were administered (5 mL/kg, i.p.) using 0.9% saline as the vehicle. After injection, animals were placed into an empty cage (8″×13″×5″) and HTRs were videotaped, scored later by two blinded observers, and the results were averaged (interpersonnel kappas, Pearson correlation coefficient>0.91). Locomotion was assessed using AnyMaze automated tracking software.

psychLight2 [5] = type: cell-based, human
Procedure: Compounds unlikely to bind to the sensor should produce minimal to no response in either agonist or antagonist mode. Therefore, a ligand score was calculated as: […]

[6] = tested on: GPCR-based sensors (dopamine, adrenergic, opioid, and serotonin receptors); type: cell-based; settings: 10 μM AAZ-A-154, agonist and antagonist mode
VMAT2-HET mice = assay: Sucrose preference (anhedonia) test; type: in vivo, mouse
Procedure: Adult male and female wild-type (WT) and VMAT2 heterozygous (VMAT2-HET) mice were used for these experiments, and they were housed in a humidity- and temperature-controlled room on a 14:10 h light:dark cycle. Mice were housed individually 48 h prior to the experiment with ad libitum access to chow and water. For each day's experiment, bottles were prepared with water or a 1% sucrose solution and these were weighed just prior to the test. Two h prior to the beginning of the dark cycle, the home-cage water bottle was removed. One h after onset of the dark cycle, a pair of bottles was placed into the home-cage. The mouse was given 2 h to drink, after which the bottles were removed and weighed immediately. Approximately 1 h later, the home-cage water bottle was returned. […] Once criterion was achieved, the mouse was presented with the water-sucrose (W-S) pairing. The next day (day 1), mice were administered an acute injection of AAZ-A-154 (15 mg/kg, i.p.) and 5 min later were given the W-S pairing (i.e., day 1). Subsequent W-S pairings were presented on days 2 and 4, and then at 4-day intervals. Preference for the sucrose bottle was calculated as the volume of sucrose consumed minus the volume of water consumed, divided by the total volume of liquid consumed. Preference scores approaching “0” indicated no preference for sucrose or water, whereas positive scores signified a preference for sucrose and negative scores denoted a preference for water.

[7] = tested on: embryonic rat cortical neurons; assay: Dendritogenesis (Sholl analysis) in cultured cortical neurons; type: cell-based
Procedure: For the dendritogenesis experiments conducted using cultured E18 cortical neurons, timed-pregnant Sprague Dawley rats were obtained from Charles River Laboratories (Wilmington, MA). Full culturing, staining, and analysis details were performed as previously described.

psychLight2 [8] = assay: PSYLI2 high-content imaging, agonist mode; type: cell-based, human; settings: 10 μM compound, hit limit 1 SD from vehicle
Procedure: (§2) High-Content Imaging Experiments. Glass bottom 96-well plates (P96-1.5H-N, Cellvis) were coated with 50 μg/mL of poly-D-lysine (Sigma, P6407-5MG) and 10 μg/mL laminin (Sigma, L2020) overnight in an incubator (37° C., 5% CO2). […] Immediately prior to an experiment, stock solutions of drugs in DMSO (10 mM) were first diluted 1:100 in imaging media distributed across an empty 96-well plate (treatment plate) in triplicates following a randomized plate map. […] Cells grown in a separate 96-well plate (assay plate) were gently washed (3×) with imaging media, and the wells were filled with an appropriate volume of imaging media for the respective experiment (vide infra).
(§3) For agonist mode, […] of imaging media was added to each well of the assay plate. Wells were then imaged on a Lecia DMi8 using Leica Application Suite X (V3.6.0.20104) at 40×(N.A.=0.6) with 5 regions of interest (ROI) taken per well using the default 5 ROI pattern for each well with no bias to location and no overlap of the ROIs (exposure=350 ms, LED power=80%). Next, 20 μL from the treatment plate was transferred to the assay plate for a total 1:1000 dilution of drug (10 μM drug, 0.1% DMSO). […] All final concentrations of drugs were 10 μM (0.1% DMSO) in agonist mode unless stated otherwise. After 5 min of incubation, the same sites were re-imaged using the same settings.
Once imaging was complete, the images were exported, put into a stack, and analyzed using ImageJ Fiji (ver. 1.51v) by using the rectangle function to draw an ROI around the cell membrane (one cell per image) on both the pre- and posttreatment images. ROI sizes within each plate were kept the same and saved to the ROI manager in ImageJ (ctrl+T). Images were then measured using the “multi measure” function in the ROI manager. Measurements were saved and exported. Analysis of the data was done by taking the average of each individual well's ROIs before and after drugs were added. Then the ΔF/F values for each well were calculated using the following equation: […]
as §2, with “Glass” for “High-Content Imaging Experiments. Glass”, “50 µg/mL” for “50 μg/mL”, “10 pg/mL of” for “10 μg/mL”, “were” for “were first”, “in triplicate” for “in triplicates”, “washed 3×” for “washed (3×)”
as §3, with “agonist mode experiments,” for “agonist mode,”, “media were” for “media was”, “20 pL” for “20 μL”, “plate containing” for “plate for”, “a” for “a total”, “(10 pM as the final concentration in” for “(10 μM drug,”
Once imaging was complete, the images were exported, and analyzed using self-written MATLAB script. Script will be deposit on to Github. In short, segmentation was performed on individual images and a mask highlighting the membrane of the HEK293T cells was generated. Pixel intensities were obtained from the mask-highlighted area and exported into Excel. The ΔF/F values for each well were calculated using the following equation: […]

C57BL/6J mice [9] = assay: Forced swim test (FST); type: in vivo, mouse
C57BL/6J mice [10] = assay: Head-twitch response (HTR) assay; type: in vivo, mouse; settings: i.p., multiple doses
Procedure: as §1

[11] = Plate reader screening for compound fluorescence (cell-free); type: physicochemical; settings: 10 μM, excitation 465 nm, emission 518 nm
psychLight2 [12] = type: cell-based, mouse
[13] = tested on: 5-HT levels reported by psychLight2 in DRN, BNST, BLA, OFC; type: in vivo, mouse; settings: 10 mg/kg, 30 mins prior to imaging
[14] = tested on: psychLight2 response to electrically evoked 5-HT release; parameters: species or system mouse; settings: 50 mM escitalopram as printed

SMILES: COc1ccc2c(CCN(C)C)c[nH]c2c1 [6-MeO, 6-methoxy-N,N-dimethyltrypta-mine]
- fluorescence intensity change, high content imager with psychLight2 (psychLight2 [1]): −3.0±2.7%
- Schild regression (pA2) outcome (psychLight): significantly less potent
- binding shown by competing off 5-HT (psychLight1 [2]): capable of binding to the receptor despite the fact that they lack efficacy; also recorded: capable of binding to the receptor despite lacking efficacy; also recorded: can compete off 5-HT resulting in a reduction in psychLight fluorescence
- fluorescence intensity change, confocal with psychLight1 (psychLight1 [3]): −1.1±4.6%

SMILES: COc1ccc2c(ccn2C[C@@H](C)N(C)C)c1.O=C(O)/C=C/C(=O)O [AAZ-A-154]
- locomotion (C57BL/6J mice [4]): a high dose of the compound did decrease locomotion; also recorded: a high dose of AAZ-A-154 decreased locomotion; also recorded: only decreases locomotion at a very high dose (100 mg/kg)
- Schild regression (pA2) outcome (psychLight): psychLight competitive antagonist
- ligand score (psychLight2 [5]): favorable ligand score
- selectivity across receptor-based sensors [6]: high selectivity for 5-HT2 receptors
- sucrose preference of WT animals (VMAT2-HET mice; 15 mg/kg i.p.): had no effect on WT animals; also recorded: did not modify sucrose preference in the WT animals
- persistence of anti-anhedonic effect (VMAT2-HET mice; VMAT2-HET mice, single injection 15 mg/kg, listed as AAZ, 15 mg/kg): at least 12 days
- duration of beneficial behavioral effects (VMAT2-HET mice; rodents, single administration): > 1 week and > 2 week
- sucrose preference of VMAT2-HET mice after dosing (VMAT2-HET mice; single injection 15 mg/kg i.p.): sucrose preference that was indistinguishable from WT controls
- dendritic arbor complexity (Sholl analysis) [7]: increased dendritic arbor complexity; also recorded: increases dendritic arbor complexity to a comparable extent as the fast-acting antidepressant ketamine
- effect on dendritic growth in presence of ketanserin [7]: abrogated by the 5-HT2A antagonist ketanserin; also recorded: abolished by the 5-HT2R antagonist ketanserin
- screen outcome in agonist mode (psychLight2 [8]): decreased the intrinsic fluorescence of psychLight
- immobility in the forced swim test (C57BL/6J mice [9]; 20 mg/kg i.p.): decreased immobility
- time course of antidepressant-like effects in FST (C57BL/6J mice [9]; single administration 20 mg/kg, tested 30 min and 1 week later): both rapid (30 min) and long-lasting (1 week) antidepressant-like effects
- head-twitch response (HTR) (C57BL/6J mice [10]): did not produce any head-twitches, even up to doses as high as 100 mg/kg; also recorded: failed to produce any head-twitches, even up to doses as high as 100 mg/kg

SMILES: CCN(CC)C(=O)[C@@H]1C=C2c3cccc4[nH]c(Br)c(c34)C[C@H]2N(C)C1 [BOL-148, 2-bromo-lysergic acid di-ethylamide]
- screen outcome in agonist mode (psychLight2 [8]): producing positive signals; also recorded: produced unexpected fluorescence signals
- origin of fluorescence signal, cell-free vs PSYLI2 cells [11]: due to the inherent fluorescence of these compounds, and not due to activation of the sensor

SMILES: CP(C)C.F[P-](F)(F)(F)(F)F.F[P-](F)(F)(F)(F)F.NCCc1c[nH]c2ccc(O)cc12.[Ru+2].c1ccc(-c2ccccn2)nc1.c1ccc(-c2ccccn2)nc1 [RuBi-5-HT]
- ΔpL2/tdT (psychLight2 to tdTomato ratio vs baseline) (psychLight2 [12]): 111.2%±0.7%

SMILES: CN(C)CCC[C@@]1(c2ccc(F)cc2)OCc2cc(C#N)ccc21 [escitalopram, escitalopram oxalate]
- effect on 5-HT dynamics following foot shock [13]: mitigated the reduction in 5-HT levels observed following foot shock; also recorded: delayed the return of elevated 5-HT levels to baseline
- ΔF/F of psychLight2 response to electrical stimuli [14]: 18.4%±4.3%
